What was measured:
[1] = xn = mol fraction of the nth substance listed; settings: 298.15 K, 101.3 kPa, Liquid
[2] = Liquid; for mass density: 298.15 K, 101.33 kPa

CC(C)CCl [1-chloro-2-methylpropane] + C1COCCO1
[1]
Settings | mass density [kg/m3]
x2 = 0.0529 | 877.81
x2 = 0.1009 | 883.95
x2 = 0.2001 | 896.98
x2 = 0.3003 | 910.79
x2 = 0.3957 | 924.5
x2 = 0.5022 | 940.58
x2 = 0.5945 | 955.19
x2 = 0.7005 | 972.78
x2 = 0.7926 | 988.8
x2 = 0.8978 | 1008.04
x2 = 0.9371 | 1015.61

CC(C)(C)Cl [2-chloro-2-methylpropane]
Settings | mass density [kg/m3]
[2] | 836.45

Settings | Normal boiling temperature [°C]
[2], Ebulliometric method (Recirculating still) | 50.73

CC(C)(C)Cl [2-chloro-2-methylpropane] + C1COCCO1
[1]
Settings | mass density [kg/m3]
x2 = 0.0563 | 845.77
x2 = 0.1059 | 853.89
x2 = 0.2019 | 870.2
x2 = 0.3134 | 889.71
x2 = 0.4148 | 908.22
x2 = 0.5097 | 926.46
x2 = 0.6071 | 945.55
x2 = 0.7113 | 966.4
x2 = 0.8 | 984.5
x2 = 0.9062 | 1006.81
x2 = 0.9554 | 1017.73

CCC(C)Cl (centres undefined) [2-chlorobutane] + C1COCCO1
[1]
Settings | mass density [kg/m3]
x2 = 0.0522 | 874.11
x2 = 0.0886 | 878.88
x2 = 0.1892 | 892.48
x2 = 0.2923 | 907.06
x2 = 0.3647 | 917.71
x2 = 0.4928 | 937.42
x2 = 0.6155 | 957.41
x2 = 0.7149 | 974.47
x2 = 0.8019 | 990.07
x2 = 0.9068 | 1009.72
x2 = 0.941 | 1016.33

CCCCCl [1-chlorobutane] + C1COCCO1
[1]
Settings | mass density [kg/m3]
x2 = 0.0422 | 885.61
x2 = 0.0947 | 891.8
x2 = 0.2055 | 905.35
x2 = 0.2766 | 914.45
x2 = 0.4083 | 932.02
x2 = 0.4852 | 942.87
x2 = 0.6082 | 961.08
x2 = 0.6587 | 968.92
x2 = 0.7939 | 990.92
x2 = 0.894 | 1008.37
x2 = 0.9509 | 1018.71

C1COCCO1 [1,4-dioxane]
[2]
Settings | Normal boiling temperature [°C] | mass density [kg/m3]
– | 101.37 | 1027.88

CCC(C)Cl (centres undefined) [2-chlorobutane]
Settings | mass density [kg/m3]
[2] | 867.4

Settings | Normal boiling temperature [°C]
[2], Ebulliometric method (Recirculating still) | 68.11

CC(C)CCl [1-chloro-2-methylpropane]
Settings | mass density [kg/m3]
[2] | 871.13

Settings | Normal boiling temperature [°C]
[2], Ebulliometric method (Recirculating still) | 68.90

CCCCCl [1-chlorobutane]
Settings | mass density [kg/m3]
[2] | 880.69

Settings | Normal boiling temperature [°C]
[2], Ebulliometric method (Recirculating still) | 78.37
